Measurements published in PubChem BioAssay AID248 (DTP/NCI, 2004).
Toxic doses and inconclusive results are not listed.

Test system: L1210 leukemia ip in BDF1 mice, survival T/C
Test: NCI In Vivo Anticancer Drug Screen. Data for tumor model L1210 Leukemia (intraperitoneal) in B6D2F1 (BDF1) mice
Conditions: endpoint: mean survival time, higher = longer survival
Summary of the method: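 Tumor cells were implanted, animals were treated, and survival was followed. The result divides the treated measurement by the vehicle-control measurement.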

[1] = dose: 50.0 mg/kg/injection, schedule: Q01DX009 (ip), vehicle: saline
[2] = dose: 100.0 mg/kg/injection, schedule: Q01DX001 (ip), vehicle: carboxymethylcellulose (CMC)
[3] = dose: 100.0 mg/kg/injection, schedule: Q01DX009 (ip), vehicle: saline
[4] = dose: 200.0 mg/kg/injection, schedule: Q01DX001 (ip), vehicle: carboxymethylcellulose (CMC)
[5] = dose: 400.0 mg/kg/injection, schedule: Q01DX001 (ip), vehicle: carboxymethylcellulose (CMC)
[6] = dose: 100.0 mg/kg/injection, schedule: Q04DX003 (ip), vehicle: saline with Tween-80
[7] = dose: 200.0 mg/kg/injection, schedule: Q04DX003 (ip), vehicle: saline with Tween-80
[8] = dose: 100.0 mg/kg/injection, schedule: Q04DX003 (ip), vehicle: saline
[9] = dose: 200.0 mg/kg/injection, schedule: Q01DX009 (ip), vehicle: saline
[10] = dose: 200.0 mg/kg/injection, schedule: Q04DX003 (ip), vehicle: saline
[11] = dose: 400.0 mg/kg/injection, schedule: Q04DX003 (ip), vehicle: saline
[12] = dose: 25.0 mg/kg/injection, schedule: Q04DX002 (ip), vehicle: Klucel (hydroxypropylcellulose) (HPC)
[13] = dose: 50.0 mg/kg/injection, schedule: Q04DX002 (ip), vehicle: Klucel (hydroxypropylcellulose) (HPC)
[14] = dose: 100.0 mg/kg/injection, schedule: Q04DX002 (ip), vehicle: Klucel (hydroxypropylcellulose) (HPC)
[15] = dose: 200.0 mg/kg/injection, schedule: Q04DX002 (ip), vehicle: Klucel (hydroxypropylcellulose) (HPC)

Structure (SMILES): C#CC(OC(=O)NC1CCCCC1)(c1ccccc1)c1ccccc1
- T/C (dose: 3.0 mg/kg/injection, schedule: Q01DX009 (ip), vehicle: carboxymethylcellulose (CMC)): 101 % of control
- T/C (dose: 6.0 mg/kg/injection, schedule: Q01DX009 (ip), vehicle: carboxymethylcellulose (CMC)): 100 % of control
- T/C (dose: 6.25 mg/kg/injection, schedule: Q01DX009 (ip), vehicle: saline with Tween-80): 106 % of control
- T/C (dose: 12.0 mg/kg/injection, schedule: Q01DX009 (ip), vehicle: carboxymethylcellulose (CMC)): 110 % of control
- T/C (dose: 12.5 mg/kg/injection, schedule: Q01DX009 (ip), vehicle: saline with Tween-80): 106 % of control
- T/C (dose: 12.5 mg/kg/injection, schedule: Q01DX009 (ip), vehicle: saline): 106 % of control
- T/C (dose: 25.0 mg/kg/injection, schedule: Q01DX009 (ip), vehicle: carboxymethylcellulose (CMC)): 116 % of control
- T/C (dose: 25.0 mg/kg/injection, schedule: Q01DX009 (ip), vehicle: saline): 114 % of control
- T/C [1]: 157 % of control
- T/C (dose: 88.0 mg/kg/injection, schedule: Q04DX003 (ip), vehicle: saline sonified): 107 % of control
- T/C [2]: 97 % of control
- T/C (dose: 100.0 mg/kg/injection, schedule: Q01DX009 (ip), vehicle: saline sonified): 96 % of control
- T/C [3]: 97 % of control
- T/C (dose: 132.0 mg/kg/injection, schedule: Q04DX003 (ip), vehicle: saline sonified): 110 % of control
- T/C [4]: 104 % of control
- T/C (dose: 300.0 mg/kg/injection, schedule: Q04DX003 (ip), vehicle: saline sonified): 110 % of control
- T/C [5]: 116 % of control

Structure (SMILES): CCOC(=O)C(C#N)C(=N)C1CC(C)(C)OC1=O (stereo unspecified)
- T/C (dose: 75.0 mg/kg/injection, schedule: Q01DX001 (ip), vehicle: other): 101 % of control
- T/C (dose: 150.0 mg/kg/injection, schedule: Q01DX001 (ip), vehicle: other): 106 % of control

Structure (SMILES): CC(NC(=O)OCc1ccccc1)C(=O)NC(CSCc1ccccc1)C(=O)O (stereo unspecified)
- T/C [6]: 97 % of control
- T/C [7]: 97 % of control
- T/C (dose: 400.0 mg/kg/injection, schedule: Q04DX003 (ip), vehicle: saline with Tween-80): 97 % of control

Structure (SMILES): C[Si](C)(O[Si](C)(C)c1ccccc1)c1ccccc1
- T/C (dose: 20.0 mg/kg/injection, schedule: Q01DX009 (ip), vehicle: saline): 93 % of control
- T/C (dose: 40.0 mg/kg/injection, schedule: Q01DX009 (ip), vehicle: saline): 90 % of control
- T/C (dose: 80.0 mg/kg/injection, schedule: Q01DX009 (ip), vehicle: saline): 87 % of control
- T/C [3]: 95 % of control
- T/C [8]: 103 % of control
- T/C [9]: 107 % of control
- T/C [10]: 100 % of control
- T/C [11]: 97 % of control

Structure (SMILES): COc1ccc(/C=N/NC(=O)CNC(=O)NCc2ccccc2)cc1
- T/C (dose: 100.0 mg/kg/injection, schedule: Q01DX009 (ip), vehicle: Klucel (hydroxypropylcellulose) (HPC)): 90 % of control
- T/C (dose: 200.0 mg/kg/injection, schedule: Q01DX009 (ip), vehicle: Klucel (hydroxypropylcellulose) (HPC)): 93 % of control

Structure (SMILES): OC1CCc2c(Cl)sc(Cl)c21 (stereo unspecified)
- T/C (dose: 400.0 mg/kg/injection, schedule: Q01DX001 (ip), vehicle: saline with Tween-80): 98 % of control

Structure (SMILES): Oc1ccc(-c2cc3c(O)ccc(O)c3[nH]2)cc1O
- T/C [12]: 86 % of control
- T/C [13]: 93 % of control
- T/C [14]: 89 % of control

Structure (SMILES): CCOC(=O)C1CN(Cc2ccccc2)CCC1=O (stereo unspecified)
- T/C [8]: 103 % of control
- T/C [10]: 106 % of control
- T/C [11]: 100 % of control

Structure (SMILES): CC(=O)N(Cl)c1ccc(Cl)cc1Cl
- T/C [14]: 100 % of control
- T/C [15]: 98 % of control
- T/C (dose: 400.0 mg/kg/injection, schedule: Q04DX002 (ip), vehicle: Klucel (hydroxypropylcellulose) (HPC)): 91 % of control

Structure (SMILES): COc1ccc(-n2c(C)csc2=S)cc1
- T/C [6]: 94 % of control
- T/C [7]: 97 % of control

Structure (SMILES): Cc1ccc(C/C(Cc2ccccc2)=N/O)cc1
- T/C [12]: 101 % of control
- T/C [13]: 111 % of control
- T/C [14]: 93 % of control
- T/C (dose: 100.0 mg/kg/injection, schedule: Q04DX002 (ip), vehicle: saline): 111 % of control
- T/C [15]: 108 % of control
- T/C (dose: 200.0 mg/kg/injection, schedule: Q04DX002 (ip), vehicle: saline): 97 % of control
- T/C (dose: 400.0 mg/kg/injection, schedule: Q04DX002 (ip), vehicle: saline): 87 % of control

Structure (SMILES): OCCCC1CCCCC1
- T/C [1]: 97 % of control
- T/C [3]: 175 % of control
- T/C [9]: 103 % of control

Structure (SMILES): CC(O)CN(c1ccccc1)c1ccccc1 (stereo unspecified)
- T/C [2]: 101 % of control
- T/C [4]: 92 % of control
- T/C [5]: 95 % of control

Structure (SMILES): CC(=O)Nc1ccc(-c2ccccc2)cc1
- T/C (dose: 100.0 mg/kg/injection, schedule: Q01DX001 (ip), vehicle: Klucel (hydroxypropylcellulose) (HPC)): 99 % of control
- T/C (dose: 100.0 mg/kg/injection, schedule: Q01DX009 (ip), vehicle: saline with Tween-80): 110 % of control
- T/C (dose: 200.0 mg/kg/injection, schedule: Q01DX001 (ip), vehicle: Klucel (hydroxypropylcellulose) (HPC)): 99 % of control
- T/C (dose: 200.0 mg/kg/injection, schedule: Q01DX009 (ip), vehicle: saline with Tween-80): 86 % of control
